Patent publication US20260365670A1, “EGFR INHIBITORS AND USES THEREOF” (DIZAL (JIANGSU) PHARMACEUTICAL CO., LTD., priority 2022, published 2026)
Like-named read-outs stand apart in the source and are kept apart here.

Tests used:
EGFR wild type = target: T1, EGFR wild type (Homo sapiens, UniProt P00533); test: Inhibition of EGFR wild type biochemical enzymatic activity (HTRF); conditions: 1 mM ATP
T1 construct: purchased Carna Bio
Outline: (§1)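 HTRF kinase assay: each EGFR enzyme phosphorylated 1 μM biotinylated TK substrate with 1 mM ATP in buffer containing 5 mM MgCl2, 1 mM MnCl2, 0.01% CHAPS, 1 mM DTT, 0.5% DMSO. After 1 h at room temperature, EDTA detection mix stopped the reaction. IC50 came from a four-parameter logistic fit of the 665/615 nm ratio.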

EGFR L858R = target: T2, EGFR L858R (Homo sapiens, UniProt P00533, L858R); test: Inhibition of EGFR L858R biochemical enzymatic activity (HTRF); conditions: 1 mM ATP
T2 construct: purchased Carna Bio
Outline: as §1

EGFR L858R/T790M = target: T3, EGFR L858R/T790M (Homo sapiens, UniProt P00533, L858R/T790M); test: Inhibition of EGFR L858R/T790M biochemical enzymatic activity (HTRF); conditions: 1 mM ATP
T3 construct: purchased Carna Bio
Outline: as §1

EGFR Exon19Del = target: T4, EGFR Exon19Del (Homo sapiens, UniProt P00533, DEL746-750); test: Inhibition of EGFR Exon19Del biochemical enzymatic activity (HTRF); conditions: read-out: IC50 @Del19
T4 construct: purchased Carna Bio
Outline: as §1

EGFR Exon19Del/T790M = target: T5, EGFR Exon19Del/T790M (Homo sapiens, UniProt P00533, DEL746-750/T790M); test: Inhibition of EGFR Exon19Del/T790M biochemical enzymatic activity (HTRF); conditions: 1 mM ATP
T5 construct: purchased Carna Bio
Outline: as §1

EGFR[T790M/C797S/L858R] = target: T6, EGFR[T790M/C797S/L858R] (Homo sapiens, UniProt P00533, C797S/L858R/T790M); test: Inhibition of EGFR[T790M/C797S/L858R] biochemical enzymatic activity (HTRF); conditions: 1 mM ATP
T6 construct: purchased Carna Bio
Outline: as §1

[1] = target: T7, EGFR[T790M/C797S/d746-750] (Homo sapiens, UniProt P00533, C797S/DEL746-750/T790M); test: Inhibition of EGFR[T790M/C797S/d746-750] biochemical enzymatic activity (HTRF)
T7 construct: purchased Carna Bio
Outline: as §1

EGFR (d746-750 C797S) = target: T8, EGFR (d746-750 C797S) (Homo sapiens, UniProt P00533, C797S/DEL746-750); test: Inhibition of EGFR (d746-750 C797S) biochemical enzymatic activity (HTRF); conditions: 1 mM ATP
T8 construct: purchased signalchem
Outline: as §1

EGFR (C797S L858R) = target: T9, EGFR (C797S L858R) (Homo sapiens, UniProt P00533, C797S/L858R); test: Inhibition of EGFR (C797S L858R) biochemical enzymatic activity (HTRF); conditions: 1 mM ATP
T9 construct: purchased signalchem
Outline: as §1

[2] = tested on: Ba/F3 cells expressing EGFR mutations; test: Cell proliferation assay, Ba/F3 cells expressing EGFR mutations (CellTiter-Glo, 72 hours); format: cell-based
Outline: (§2)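 Ba/F3 cells (5000/well) and PC-9 cells (500/well, RPMI1640 with 10% FBS) were plated overnight and then dosed with a compound concentration series. Viable cells were read at day 0 (G0) and after treatment (G3). GI50 came from curve fits of G0-corrected proliferation relative to DMSO.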

PC-9 = test: Cell proliferation assay, PC-9 cells (CellTiter-Glo, 72 hours); format: cell-based; conditions: PC9 cells
Outline: as §2

[3] = EGFR wild type, 1 h at room temperature, read-out: IC50 @WT
[4] = 1 h at room temperature, read-out: IC50 @L858R
[5] = EGFR L858R/T790M, 1 h at room temperature, read-out: IC50 @L858R-T790M
[6] = EGFR Exon19Del, 1 mM ATP, 1 h at room temperature
[7] = EGFR Exon19Del/T790M, 1 h at room temperature, read-out: IC50 @Del19-T790M
[8] = EGFR[T790M/C797S/L858R], 1 h at room temperature, read-out: IC50 @T790M- C797S - L858R
[9] = EGFR[T790M/C797S/d746-750], 1 mM ATP, 1 h at room temperature, read-out: IC50 @T790M - C797S - Del19
[10] = EGFR (d746-750 C797S), 1 h at room temperature, read-out: IC50 @Del19-C797S
[11] = EGFR (C797S L858R), 1 h at room temperature, read-out: IC50 @L858-C797S
[12] = BaF3 cells, EGFR DEL19 - C797S, read-out: GI50 DEL19 - C797S/BaF3
[13] = BaF3 cells, EGFR DEL19 - T790-C797S, read-out: GI50 DEL19 - T790-C797S/BaF3
[14] = BaF3 cells, EGFR L858R - C797S, read-out: GI50 L858R - C797S/BaF3
[15] = BaF3 cells, EGFR L858R - T790-C797S, read-out: GI50 L858R - T790-C797S/BaF3
[16] = BaF3 cells, EGFR L858R - T790M, read-out: GI50 L858R - T790M/BaF3
[17] = BaF3 cells, EGFR L858R, read-out: GI50 L858R/BaF3
[18] = EGFR DEL19 - T790M, read-out: GI50 DEL19 - T790M

T7 sequence (P00533 with tags, fused parts or gaps DEL746-750/T790M/C797S limits assumed): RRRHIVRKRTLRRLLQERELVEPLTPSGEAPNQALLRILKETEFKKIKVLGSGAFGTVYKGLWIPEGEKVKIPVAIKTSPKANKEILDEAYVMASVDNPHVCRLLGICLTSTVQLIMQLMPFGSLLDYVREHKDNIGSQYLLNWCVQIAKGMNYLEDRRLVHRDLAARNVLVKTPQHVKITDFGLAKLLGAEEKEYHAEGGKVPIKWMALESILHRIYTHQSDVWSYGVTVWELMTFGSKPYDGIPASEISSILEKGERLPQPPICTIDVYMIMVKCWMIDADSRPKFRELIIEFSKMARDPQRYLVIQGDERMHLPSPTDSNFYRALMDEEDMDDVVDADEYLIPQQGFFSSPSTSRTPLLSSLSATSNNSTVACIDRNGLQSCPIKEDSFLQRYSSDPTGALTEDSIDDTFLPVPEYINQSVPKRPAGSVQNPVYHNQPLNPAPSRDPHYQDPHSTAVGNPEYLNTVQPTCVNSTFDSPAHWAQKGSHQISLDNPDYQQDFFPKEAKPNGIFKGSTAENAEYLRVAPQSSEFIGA
T6 sequence (P00533 25-1210 T790M/C797S/L858R): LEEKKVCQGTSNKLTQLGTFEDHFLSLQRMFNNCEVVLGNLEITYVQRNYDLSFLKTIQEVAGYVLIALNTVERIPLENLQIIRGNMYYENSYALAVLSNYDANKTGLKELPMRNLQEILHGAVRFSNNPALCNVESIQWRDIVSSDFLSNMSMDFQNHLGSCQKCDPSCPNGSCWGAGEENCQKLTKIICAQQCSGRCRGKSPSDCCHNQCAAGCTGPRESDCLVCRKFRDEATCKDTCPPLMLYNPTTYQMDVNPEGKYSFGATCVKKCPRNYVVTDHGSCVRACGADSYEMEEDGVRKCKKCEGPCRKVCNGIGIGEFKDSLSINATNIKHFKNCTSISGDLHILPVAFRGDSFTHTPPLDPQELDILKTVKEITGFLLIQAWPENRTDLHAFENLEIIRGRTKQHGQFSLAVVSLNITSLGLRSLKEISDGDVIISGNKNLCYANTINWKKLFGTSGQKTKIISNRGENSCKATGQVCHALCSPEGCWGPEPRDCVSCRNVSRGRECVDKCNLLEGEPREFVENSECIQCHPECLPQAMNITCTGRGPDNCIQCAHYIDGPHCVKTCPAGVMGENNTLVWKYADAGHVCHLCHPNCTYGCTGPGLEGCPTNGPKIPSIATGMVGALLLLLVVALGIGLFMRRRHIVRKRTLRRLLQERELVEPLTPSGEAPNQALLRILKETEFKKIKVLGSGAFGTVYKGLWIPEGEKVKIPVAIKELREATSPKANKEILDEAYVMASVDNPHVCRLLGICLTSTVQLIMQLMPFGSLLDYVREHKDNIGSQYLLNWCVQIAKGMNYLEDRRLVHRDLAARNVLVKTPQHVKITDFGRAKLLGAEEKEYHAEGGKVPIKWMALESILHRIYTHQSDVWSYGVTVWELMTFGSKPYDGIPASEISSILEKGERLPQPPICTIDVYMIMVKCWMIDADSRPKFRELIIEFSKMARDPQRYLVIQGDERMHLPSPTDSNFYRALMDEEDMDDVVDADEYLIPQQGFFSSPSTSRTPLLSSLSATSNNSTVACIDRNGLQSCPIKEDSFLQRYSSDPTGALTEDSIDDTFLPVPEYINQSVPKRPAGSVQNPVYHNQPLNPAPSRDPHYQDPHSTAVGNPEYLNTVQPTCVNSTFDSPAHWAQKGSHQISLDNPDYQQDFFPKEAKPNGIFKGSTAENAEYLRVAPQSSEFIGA
T5 sequence (P00533 with tags, fused parts or gaps DEL746-750/T790M limits assumed): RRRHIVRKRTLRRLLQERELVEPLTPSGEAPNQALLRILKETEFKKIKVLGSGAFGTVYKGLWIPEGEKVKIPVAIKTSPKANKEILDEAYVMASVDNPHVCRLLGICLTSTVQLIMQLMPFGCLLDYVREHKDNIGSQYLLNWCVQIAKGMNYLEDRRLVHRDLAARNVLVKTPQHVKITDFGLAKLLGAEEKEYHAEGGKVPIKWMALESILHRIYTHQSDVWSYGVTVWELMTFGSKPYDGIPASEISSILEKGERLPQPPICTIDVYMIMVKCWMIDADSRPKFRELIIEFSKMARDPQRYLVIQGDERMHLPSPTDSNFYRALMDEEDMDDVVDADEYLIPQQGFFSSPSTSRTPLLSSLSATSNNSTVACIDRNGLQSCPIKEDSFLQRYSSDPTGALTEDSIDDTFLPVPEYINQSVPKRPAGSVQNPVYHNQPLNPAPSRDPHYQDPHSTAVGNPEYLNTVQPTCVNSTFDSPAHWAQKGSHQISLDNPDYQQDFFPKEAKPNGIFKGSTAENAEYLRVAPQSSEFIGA
T8 sequence (P00533 with tags, fused parts or gaps DEL746-750/C797S limits assumed): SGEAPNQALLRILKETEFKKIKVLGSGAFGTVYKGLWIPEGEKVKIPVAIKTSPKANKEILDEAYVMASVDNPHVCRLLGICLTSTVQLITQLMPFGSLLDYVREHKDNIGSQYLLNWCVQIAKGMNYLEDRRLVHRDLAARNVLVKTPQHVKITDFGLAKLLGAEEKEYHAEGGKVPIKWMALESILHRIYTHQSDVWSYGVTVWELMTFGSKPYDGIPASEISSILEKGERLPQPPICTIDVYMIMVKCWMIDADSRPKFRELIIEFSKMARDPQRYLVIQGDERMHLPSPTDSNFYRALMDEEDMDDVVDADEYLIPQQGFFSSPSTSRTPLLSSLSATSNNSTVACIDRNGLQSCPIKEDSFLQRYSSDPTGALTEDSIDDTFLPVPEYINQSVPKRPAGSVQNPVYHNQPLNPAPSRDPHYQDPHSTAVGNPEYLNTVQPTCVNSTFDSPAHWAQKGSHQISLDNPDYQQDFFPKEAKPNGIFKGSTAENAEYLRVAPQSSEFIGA
T3 sequence (P00533 25-1210 T790M/L858R): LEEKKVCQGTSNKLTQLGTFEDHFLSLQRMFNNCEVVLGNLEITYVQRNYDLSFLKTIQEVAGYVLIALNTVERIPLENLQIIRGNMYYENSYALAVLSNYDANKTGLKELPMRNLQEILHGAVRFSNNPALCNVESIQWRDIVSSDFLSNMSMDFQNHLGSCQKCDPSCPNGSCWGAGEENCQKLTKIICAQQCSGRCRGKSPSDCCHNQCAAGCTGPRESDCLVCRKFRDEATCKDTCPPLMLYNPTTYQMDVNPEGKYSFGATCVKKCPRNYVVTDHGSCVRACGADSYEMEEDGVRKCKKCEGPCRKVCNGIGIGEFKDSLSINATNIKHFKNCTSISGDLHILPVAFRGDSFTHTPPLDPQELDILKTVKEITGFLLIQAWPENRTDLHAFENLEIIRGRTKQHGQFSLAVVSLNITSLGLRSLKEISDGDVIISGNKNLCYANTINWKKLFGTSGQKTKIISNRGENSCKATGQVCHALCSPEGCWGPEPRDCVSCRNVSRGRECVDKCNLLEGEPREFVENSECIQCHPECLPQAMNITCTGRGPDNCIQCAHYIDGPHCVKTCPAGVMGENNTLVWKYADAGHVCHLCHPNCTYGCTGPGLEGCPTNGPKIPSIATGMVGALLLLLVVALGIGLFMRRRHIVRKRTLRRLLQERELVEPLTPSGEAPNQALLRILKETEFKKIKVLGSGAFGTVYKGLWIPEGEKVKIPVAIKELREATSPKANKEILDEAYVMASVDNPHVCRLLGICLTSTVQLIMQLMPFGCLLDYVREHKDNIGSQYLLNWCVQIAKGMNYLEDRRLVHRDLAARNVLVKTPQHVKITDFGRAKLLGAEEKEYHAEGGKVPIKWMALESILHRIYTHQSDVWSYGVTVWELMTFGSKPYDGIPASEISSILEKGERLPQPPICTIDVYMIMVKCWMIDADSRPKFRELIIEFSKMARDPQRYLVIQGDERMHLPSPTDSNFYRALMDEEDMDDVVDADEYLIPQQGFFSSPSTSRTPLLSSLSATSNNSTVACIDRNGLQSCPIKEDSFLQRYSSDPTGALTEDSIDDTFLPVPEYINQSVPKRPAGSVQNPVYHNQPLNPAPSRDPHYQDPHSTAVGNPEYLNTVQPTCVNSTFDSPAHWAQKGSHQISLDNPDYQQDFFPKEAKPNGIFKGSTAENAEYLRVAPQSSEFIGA
T4 sequence (P00533 with tags, fused parts or gaps DEL746-750 limits assumed): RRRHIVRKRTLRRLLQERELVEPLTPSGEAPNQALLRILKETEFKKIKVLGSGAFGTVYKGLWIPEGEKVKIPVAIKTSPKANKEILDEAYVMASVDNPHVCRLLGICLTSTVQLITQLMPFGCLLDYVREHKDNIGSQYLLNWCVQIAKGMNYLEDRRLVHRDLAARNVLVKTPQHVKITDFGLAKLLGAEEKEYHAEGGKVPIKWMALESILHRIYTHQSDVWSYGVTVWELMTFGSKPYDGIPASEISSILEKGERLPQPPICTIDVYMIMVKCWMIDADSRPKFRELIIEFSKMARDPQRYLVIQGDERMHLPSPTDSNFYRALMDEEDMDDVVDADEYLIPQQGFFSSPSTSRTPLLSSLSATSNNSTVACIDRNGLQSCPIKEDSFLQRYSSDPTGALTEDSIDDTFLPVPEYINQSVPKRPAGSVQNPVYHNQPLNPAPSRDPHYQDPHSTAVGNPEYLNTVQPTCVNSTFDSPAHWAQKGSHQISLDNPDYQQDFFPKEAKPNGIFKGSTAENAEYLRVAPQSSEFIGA

| IC50 (EGFR wild type; [3]) [nM] | IC50 (EGFR L858R; [4]) [nM] | IC50 (EGFR L858R/T790M; [5]) [nM] | IC50 (EGFR Exon19Del; [6]) [nM] | IC50 (EGFR Exon19Del/T790M; [7]) [nM] | IC50 (EGFR[T790M/C797S/L858R]; [8]) [nM] | IC50 [1, 9] [nM] | IC50 (EGFR (d746-750 C797S); [10]) [nM] | IC50 (EGFR (C797S L858R); [11]) [nM] | GI50 [2, 12] [nM] | GI50 [2, 13] [nM] | GI50 [2, 14] [nM] | GI50 [2, 15] [nM] | GI50 [2, 16] [nM] | GI50 [2, 17] [nM] | GI50 [2, 18] [nM] | GI50 (PC-9; read-out: GI50 PC9) [nM] | SMILES | also measured |
| --- | --- | --- | --- | --- | --- | --- | --- | --- | --- | --- | --- | --- | --- | --- | --- | --- | --- | --- |
| – | – | – | – | – | – | – | – | – | – | – | – | – | – | – | – | – | CN1CCN(C2CCN(c3ccc4nc5n(c4c3)C34CCC(CN(CCOc6c(cnn6C)-c6cc(cn(C)c6=O)C(=O)N5)C3)C4)C2)CC1 (single isomer, unassigned) [Example A80A2, 15,21-Dimethyl-5-[3-(4-methylpiperazin-1-yl)pyrrolidin-1-yl]-23-oxa-2,9,11,15,20,21,26-heptaazaheptacyclo[24.4.1.1^{1,28}.1^{13,17}.0^{2,10}.0^{3,8}.0^{18,22}]tritriaconta-3,5,7,9,13,17(33),18(22),19-octaene-12,16-dione] | IC50 (EGFR wild type; EGFR WT, 1 h, room temperature, read-out: IC50 (nM) @WT): > 5000 nM; IC50 (EGFR L858R; 1 h, room temperature, read-out: IC50 (nM) @L858R): > 5000 nM; IC50 (EGFR L858R/T790M; EGFR L858R-T790M, 1 h, room temperature, read-out: IC50 (nM) @L858R-T790M): > 5000 nM; IC50 (EGFR Exon19Del; EGFR Del19, 1 mM ATP, 1 h, room temperature): 490 nM; IC50 (EGFR Exon19Del/T790M; EGFR Del19-T790M, 1 h, room temperature, read-out: IC50 (nM) @Del19-T790M): > 5000 nM; IC50 (EGFR[T790M/C797S/L858R]; EGFR T790M-C797S-L858R, 1 h, room temperature, read-out: IC50 (nM) @T790M- C797S - L858R): > 5000 nM; IC50 ([1]; EGFR T790M-C797S-Del19, 1 mM ATP, 1 h, room temperature, read-out: IC50 (nM) @T790M - C797S - Del19): 2190 nM; IC50 (EGFR (d746-750 C797S); EGFR Del19-C797S, 1 h, room temperature, read-out: IC50 (nM) @Del19-C797S): 530 nM; IC50 (EGFR (C797S L858R); EGFR L858-C797S, 1 h, room temperature, read-out: IC50 (nM) @L858-C797S): > 5000 nM; GI50 ([2]; BaF3 cells, EGFR DEL19-C797S, CellTiter-Glo, read-out: DEL19-C797S/BaF3 GI50): 57 nM; GI50 ([2]; BaF3 cells, EGFR DEL19-T790-C797S, CellTiter-Glo, read-out: DEL19-T790-C797S/BaF3 GI50): 170 nM; GI50 ([2]; BaF3 cells, EGFR L858R, CellTiter-Glo, read-out: L858R/BaF3 GI50): 100 nM; GI50 ([2]; BaF3 cells, EGFR L858R-C797S, CellTiter-Glo, read-out: L858R-C797S/BaF3 GI50): 125 nM; GI50 ([2]; BaF3 cells, EGFR L858R-T790-C797S, CellTiter-Glo, read-out: L858R-T790-C797S/BaF3 GI50): 126 nM; GI50 ([2]; BaF3 cells, EGFR L858R-T790M, CellTiter-Glo, read-out: L858R-T790M/BaF3 GI50): 315 nM; GI50 ([2]; EGFR DEL19-T790M, CellTiter-Glo, read-out: DEL19-T790M GI50): 136 nM; GI50 (PC-9; CellTiter-Glo, read-out: PC9 GI50): 381 nM |
| > 5000 | > 5000 | > 5000 | > 5000 | 3670 | > 5000 | 1300 | > 5000 | > 5000 | 302 | 436 | 776 | 39 | 315 | 2790 | 348 | 2300 | Cc1cc2cc(n1)-c1cnn(C)c1OCCN1CC3CCC(C3)(C1)n1c(nc3ccc(N4CC[C@H](N(C)C)C4)cc31)NC2=O (single isomer, unassigned) [Example B41A] | – |
| 360 | 27 | 7.7 | 12 | 10 | 4.4 | 6.1 | 5 | 9.5 | 11 | 12 | 27 | 3 | 11 | 36 | 13 | 32 | Cc1cc2cc(n1)-c1cnn(C)c1OCCN1CC3CCC(C3)(C1)n1c(nc3ccc(N4CCC(N5CCN(C)CC5)CC4)cc31)NC2=O (single isomer, unassigned) [Example B59B] | – |
| > 5000 | > 5000 | 2630 | 1210 | 104 | 1650 | 62 | 611 | > 5000 | – | – | – | – | – | – | – | – | Cc1cc2cc(n1)-c1cnn(C)c1OCCN1CCOCC(C1)n1c(nc3ccccc31)NC2=O (single isomer, unassigned) [Example B7A, 15,21-dimethyl-23,29-dioxa-2,9,11,16,20,21,26-heptaazahexacyclo[24.4.1.1^{13,17}.0^{2,10}.0^{3,8}.0^{18,22}]dotriaconta-3,5,7,9,13(32),14,16,18(22),19-nonaen-12-one] | GI50 ([2]; Mus musculus, BaF3, 72 h, BaF3 cells, EGFR DEL19 - C797S, read-out: GI50 DEL19 - C797S/BaF3): 228 nM; GI50 ([2]; Mus musculus, BaF3, 72 h, BaF3 cells, EGFR DEL19 - T790-C797S, read-out: GI50 DEL19 - T790-C797S/BaF3): 186 nM; GI50 ([2]; Mus musculus, BaF3, 72 h, BaF3 cells, EGFR L858R - C797S, read-out: GI50 L858R - C797S/BaF3): 189 nM; GI50 ([2]; Mus musculus, BaF3, 72 h, BaF3 cells, EGFR L858R - T790-C797S, read-out: GI50 L858R - T790-C797S/BaF3): 295 nM; GI50 ([2]; Mus musculus, BaF3, 72 h, BaF3 cells, EGFR L858R - T790M, read-out: GI50 L858R - T790M/BaF3): 383 nM; GI50 ([2]; Mus musculus, BaF3, 72 h, BaF3 cells, EGFR L858R, read-out: GI50 L858R/BaF3): 934 nM; GI50 ([2]; Mus musculus, BaF3, 72 h, EGFR DEL19 - T790M, read-out: GI50 DEL19 - T790M): 265 nM; GI50 (PC-9; Homo sapiens, PC-9, 72 h, read-out: GI50 PC9): 427 nM |
| > 5000 | > 5000 | > 5000 | > 5000 | 2290 | > 5000 | 748 | > 5000 | > 5000 | 302 | 437 | 741 | 52 | 320 | 1280 | 377 | 1550 | Cc1cc2cc(n1)-c1cnn(C)c1OCCN1CC3CCC(C3)(C1)n1c(nc3ccc(N4CCC5(CN(C)C5)C4)cc31)NC2=O (single isomer, unassigned) [Example B50A] | – |
| > 5000 | > 5000 | > 5000 | > 5000 | > 5000 | > 5000 | 4530 | > 5000 | > 5000 | 470 | 454 | 850 | 114 | 392 | 3200 | 1210 | 2300 | Cc1cc2cc(n1)-c1cnn(C)c1OCCN1CC3CCC(C3)(C1)n1c(nc3ccc(N4CCC(N5CCOCC5)C4)cc31)NC2=O (single isomer, unassigned) [Example B44A1] | – |
